From ChEMBL document CHEMBL5303573, “Mapping human microbiome drug metabolism by gut bacteria and their genes” (Nature, 2019)

What was measured:
Type in all cases: ADME
Parameters in all cases: dose 2 uM
Conditions in all cases: 2 µM
General stress protein = General stress protein (Bacteroides thetaiotaomicron, UniProt Q8A7U5); assay: (§1) The drug is tested on Bacteroides thetaiotaomicron strain: VPI-5482 for biotransformation. The drug concentrations were measured before and after a 12-h incubation by liquid-chromatography-coupled mass spectrometry (LC–MS)
Sequence of General stress protein (Q8A7U5 1-138, change not shown): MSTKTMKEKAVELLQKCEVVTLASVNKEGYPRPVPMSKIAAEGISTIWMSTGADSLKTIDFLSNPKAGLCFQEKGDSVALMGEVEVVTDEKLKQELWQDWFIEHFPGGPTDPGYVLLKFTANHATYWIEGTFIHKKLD

Xylanase = target: T1, Xylanase (Bacteroides thetaiotaomicron, UniProt Q8A8H5); assay: as §1
T1 sequence (Q8A8H5 whole entry): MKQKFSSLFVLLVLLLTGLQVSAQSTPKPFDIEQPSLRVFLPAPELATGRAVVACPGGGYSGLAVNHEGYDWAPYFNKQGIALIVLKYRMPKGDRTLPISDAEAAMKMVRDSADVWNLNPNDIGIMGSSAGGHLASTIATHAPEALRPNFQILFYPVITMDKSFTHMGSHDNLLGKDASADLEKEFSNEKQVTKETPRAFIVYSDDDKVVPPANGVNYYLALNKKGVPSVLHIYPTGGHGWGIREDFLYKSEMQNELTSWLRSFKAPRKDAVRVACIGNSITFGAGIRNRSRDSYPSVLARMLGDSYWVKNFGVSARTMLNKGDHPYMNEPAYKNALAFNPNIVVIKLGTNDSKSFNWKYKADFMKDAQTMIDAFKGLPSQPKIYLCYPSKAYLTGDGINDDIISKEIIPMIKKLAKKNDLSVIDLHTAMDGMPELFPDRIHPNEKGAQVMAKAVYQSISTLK

[1] = target: T2, Nitroreductase-like protein (Bacteroides thetaiotaomicron, UniProt Q8AB93); assay: as §1
T2 sequence (Q8AB93 whole entry): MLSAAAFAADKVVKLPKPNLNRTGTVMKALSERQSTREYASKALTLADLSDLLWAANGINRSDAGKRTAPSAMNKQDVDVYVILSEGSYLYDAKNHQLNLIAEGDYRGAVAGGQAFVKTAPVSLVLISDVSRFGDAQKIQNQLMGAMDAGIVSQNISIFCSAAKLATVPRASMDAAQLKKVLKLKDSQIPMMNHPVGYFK

Acyltransferase = target: T3, Acyltransferase (Bacteroides thetaiotaomicron, UniProt Q8A575); assay: as §1
T3 sequence (Q8A575 whole entry): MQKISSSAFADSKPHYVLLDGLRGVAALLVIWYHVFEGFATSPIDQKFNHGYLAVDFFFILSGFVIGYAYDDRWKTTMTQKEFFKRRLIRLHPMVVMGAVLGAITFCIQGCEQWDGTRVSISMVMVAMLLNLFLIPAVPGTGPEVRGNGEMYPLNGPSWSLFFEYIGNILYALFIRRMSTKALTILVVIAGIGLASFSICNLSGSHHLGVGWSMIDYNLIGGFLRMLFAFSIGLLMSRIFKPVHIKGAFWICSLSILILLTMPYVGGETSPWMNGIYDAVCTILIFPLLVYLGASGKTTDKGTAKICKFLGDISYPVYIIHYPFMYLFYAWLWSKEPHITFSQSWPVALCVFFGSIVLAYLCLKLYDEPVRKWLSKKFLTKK

Nitroreductase = target: T4, Nitroreductase (Bacteroides thetaiotaomicron, UniProt Q8A911); assay: as §1
T4 sequence (Q8A911 whole entry): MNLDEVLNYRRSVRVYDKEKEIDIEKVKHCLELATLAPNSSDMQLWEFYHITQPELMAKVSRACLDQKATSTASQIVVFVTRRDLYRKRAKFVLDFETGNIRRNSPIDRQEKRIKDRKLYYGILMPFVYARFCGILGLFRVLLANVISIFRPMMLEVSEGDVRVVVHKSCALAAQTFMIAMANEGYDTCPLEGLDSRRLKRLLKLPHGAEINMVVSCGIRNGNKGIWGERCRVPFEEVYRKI

[2] = target: T5, 3-oxo-5-alpha-steroid 4-dehydrogenase (Bacteroides thetaiotaomicron, UniProt Q8A618); assay: as §1
T5 sequence (Q8A618 whole entry): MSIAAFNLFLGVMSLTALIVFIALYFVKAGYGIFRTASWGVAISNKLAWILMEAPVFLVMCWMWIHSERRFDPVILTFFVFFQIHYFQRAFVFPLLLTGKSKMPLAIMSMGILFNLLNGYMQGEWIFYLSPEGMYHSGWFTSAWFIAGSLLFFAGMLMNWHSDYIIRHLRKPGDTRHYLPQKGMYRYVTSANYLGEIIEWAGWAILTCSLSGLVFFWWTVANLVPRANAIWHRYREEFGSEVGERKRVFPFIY

[3] = target: T6, Sialic acid-specific 9-O-acetylesterase (Bacteroides thetaiotaomicron, UniProt Q8A0D0); assay: as §1
T6 sequence (Q8A0D0 whole entry): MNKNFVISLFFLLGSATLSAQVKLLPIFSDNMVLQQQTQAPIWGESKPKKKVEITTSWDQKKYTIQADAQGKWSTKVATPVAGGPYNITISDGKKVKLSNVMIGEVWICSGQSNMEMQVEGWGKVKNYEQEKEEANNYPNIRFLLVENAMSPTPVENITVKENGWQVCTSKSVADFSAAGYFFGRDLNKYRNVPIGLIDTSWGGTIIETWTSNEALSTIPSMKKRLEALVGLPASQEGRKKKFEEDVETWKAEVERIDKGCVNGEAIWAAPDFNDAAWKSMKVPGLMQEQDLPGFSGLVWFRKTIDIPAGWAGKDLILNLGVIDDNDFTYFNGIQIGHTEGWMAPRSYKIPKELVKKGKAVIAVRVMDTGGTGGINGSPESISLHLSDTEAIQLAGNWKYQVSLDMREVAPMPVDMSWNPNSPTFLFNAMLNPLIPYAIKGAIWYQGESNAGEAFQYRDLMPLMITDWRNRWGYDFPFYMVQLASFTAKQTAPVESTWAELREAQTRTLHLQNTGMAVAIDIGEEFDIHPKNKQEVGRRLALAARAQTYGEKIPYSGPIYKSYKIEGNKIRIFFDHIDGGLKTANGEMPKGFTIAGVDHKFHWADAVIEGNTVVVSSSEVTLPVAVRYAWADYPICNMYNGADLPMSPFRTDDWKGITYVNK

[4] = target: T7, Sialic acid-specific acetylesterase (Bacteroides thetaiotaomicron, UniProt Q8A331); assay: as §1
T7 sequence (Q8A331 whole entry): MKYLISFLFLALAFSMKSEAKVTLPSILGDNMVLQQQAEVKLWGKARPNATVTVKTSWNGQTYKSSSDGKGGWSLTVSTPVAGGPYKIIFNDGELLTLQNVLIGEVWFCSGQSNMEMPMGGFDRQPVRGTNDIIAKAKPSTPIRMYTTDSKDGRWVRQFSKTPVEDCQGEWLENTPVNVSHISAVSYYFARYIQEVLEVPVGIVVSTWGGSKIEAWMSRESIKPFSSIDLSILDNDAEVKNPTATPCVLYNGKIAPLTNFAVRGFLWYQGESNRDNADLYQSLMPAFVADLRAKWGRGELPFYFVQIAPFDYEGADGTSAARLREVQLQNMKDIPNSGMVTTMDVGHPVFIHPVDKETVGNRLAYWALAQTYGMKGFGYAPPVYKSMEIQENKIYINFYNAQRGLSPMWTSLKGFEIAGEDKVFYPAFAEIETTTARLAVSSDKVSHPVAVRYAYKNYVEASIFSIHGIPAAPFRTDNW

Compound | Bacterial Biotransformation (General stress protein) | Bacterial Biotransformation (Xylanase) | Bacterial Biotransformation [1] | Bacterial Biotransformation (Acyltransferase) | Bacterial Biotransformation (Nitroreductase) | Bacterial Biotransformation [2] | Bacterial Biotransformation [3] | Bacterial Biotransformation [4]
COc1ccc([C@@H]2Sc3ccccc3N(CCN(C)C)C(=O)[C@@H]2OC(C)=O)cc1 [DILTIAZEM] | Compound NOT metabolized | Compound NOT metabolized | Compound NOT metabolized | Compound NOT metabolized | Compound NOT metabolized | Compound NOT metabolized | Compound NOT metabolized | Compound NOT metabolized
CC(=O)OCC(CCn1cnc2cnc(N)nc21)COC(C)=O [FAMCICLOVIR] | Compound NOT metabolized | Compound NOT metabolized | Compound NOT metabolized | Compound NOT metabolized | Compound NOT metabolized | Compound NOT metabolized | Compound metabolized | Compound metabolized
C#C[C@]1(OC(C)=O)CC[C@H]2[C@@H]3CCC4=CC(=O)CC[C@@H]4[C@H]3CC[C@@]21C [NORETHINDRONE ACETATE] | Compound NOT metabolized | Compound NOT metabolized | Compound NOT metabolized | Compound NOT metabolized | Compound NOT metabolized | Compound metabolized | Compound NOT metabolized | Compound NOT metabolized

Now from value to compound:

Bacterial Biotransformation (General stress protein) | Bacterial Biotransformation (Xylanase) | Bacterial Biotransformation [1] | Bacterial Biotransformation (Acyltransferase) | Bacterial Biotransformation (Nitroreductase) | Bacterial Biotransformation [2] | Bacterial Biotransformation [3] | Bacterial Biotransformation [4] | Compound
Compound NOT metabolized | Compound NOT metabolized | Compound NOT metabolized | Compound NOT metabolized | Compound NOT metabolized | Compound NOT metabolized |  |  | CC(=O)OCC(=O)[C@@]1(OC(C)=O)[C@@H](C)C[C@H]2[C@@H]3C[C@H](F)C4=CC(=O)C=C[C@]4(C)[C@@]3(F)[C@@H](O)C[C@@]21C [DIFLORASONE DIACETATE]
Compound NOT metabolized | Compound NOT metabolized | Compound NOT metabolized | Compound NOT metabolized | Compound NOT metabolized | Compound metabolized | Compound NOT metabolized | Compound NOT metabolized | C#C[C@]1(O)CC[C@H]2[C@@H]3CCC4=CC(=O)CC[C@@H]4[C@H]3CC[C@@]21CC [LEVONORGESTREL]
